Reference: BigSolDB 2.1

CC(O)(P(=O)(O)O)P(=O)(O)O.O
solubility (mole fraction)
Settings | 293.15 K | 298.15 K | 303.15 K | 308.15 K | 313.15 K | 318.15 K | 323.15 K | 328.15 K
in acetic acid | 0.00181 | 0.0019 | 0.00196 | 0.002 | 0.002 | 0.00214 | 0.00225 | 0.00224
in water | 0.174 | 0.182 | 0.19 | 0.198 | 0.207 | 0.215 | 0.225 | 0.235
